Reference: patent US6545030B1, “1-heterocycle substituted diarylamines” (Warner-Lambert Company, priority 1999, dated 2003)
Structures can show the parent of a compound that is named as a salt.

Row | SMILES | melting point [°C]
1 | Cc1cc(I)ccc1Nc1ccc(Cl)cc1C1=NC(C)(C)CO1 (as salt: salt) [Example 1, [4-Chloro-2-(4,4-Dimethyl-4,5-dihydro-oxazol-2-yl)-phenyl]-(4-iodo-2-methyl-phenyl)-amine] | 324 to 330
2 | Cc1cc(I)ccc1Nc1c(-c2nnco2)ccc(F)c1F [Example 9, (2,3-Difluoro-6-[1,3,4]oxadiazol-2-yl-phenyl)-(4-iodo-2-methyl-phenyl)-amine] | 144.4 to 145.5
3 | Cc1cc(I)ccc1Nc1c(-c2nnc(S)o2)ccc(F)c1F [Example 10, 5-[3,4-Difluoro-2-(4-iodo-2-methyl-phenylamino)-phenyl]-[1,3,4]oxadiazole-2-thiol] | 231.8 to 232.8
